The subject of the test is BDF1 mice, B16 melanoma ip, median survival T/C. In words: NCI In Vivo Anticancer Drug Screen. Data for tumor model B16 Melanoma (intraperitoneal) in B6D2F1 (BDF1) mice. Conditions: endpoint: median survival time, higher = longer survival. In short, it runs like this:
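Antitumor activity is assessed in mice bearing a transplanted tumor, with survival or tumor size compared against vehicle-dosed controls and expressed as T/C.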

Where [1] appears, read: dose: 25.0 mg/kg/injection, schedule: Q04DX003 (ip), vehicle: saline with Tween-80.
The mark [2] stands for this setting: dose: 50.0 mg/kg/injection, schedule: Q04DX003 (ip), vehicle: saline with Tween-80.
Where [3] appears, read: dose: 100.0 mg/kg/injection, schedule: Q04DX003 (ip), vehicle: saline with Tween-80.
The mark [4] stands for this setting: dose: 25.0 mg/kg/injection, schedule: Q01DX009 (ip), vehicle: Klucel (hydroxypropylcellulose) (HPC).
Where [5] appears, read: dose: 50.0 mg/kg/injection, schedule: Q01DX009 (ip), vehicle: Klucel (hydroxypropylcellulose) (HPC).
Setting [6] is: dose: 100.0 mg/kg/injection, schedule: Q01DX009 (ip), vehicle: Klucel (hydroxypropylcellulose) (HPC).
The mark [7] stands for this setting: dose: 200.0 mg/kg/injection, schedule: Q01DX009 (ip), vehicle: Klucel (hydroxypropylcellulose) (HPC).
Setting [8] is: dose: 50.0 mg/kg/injection, schedule: Q01DX009 (ip), vehicle: saline with Tween-80.
[9] abbreviates: dose: 100.0 mg/kg/injection, schedule: Q01DX009 (ip), vehicle: saline with Tween-80.

Several values for one entry are separate records, joined by “and”; a condition that tells them apart may be missing. Equal entries are not always repeated. Inconclusive results and toxic doses are left out.

For the compound `COc1cc2cc[n+]3c(C)c4cc5c(cc4cc3c2cc1OC)OCO5` (tested in a mixture with another compound), the T/C by setting is: (dose: 6.25 mg/kg/injection, schedule: Q01DX009 (ip), vehicle: saline) 94 % of control; (dose: 12.5 mg/kg/injection, schedule: Q01DX009 (ip), vehicle: saline) 105 % of control.

With `CCOC(=O)C(O)C(C#N)c1ccccc1` (configuration not stated), the T/C (dose: 100.0 mg/kg/injection, schedule: Q01DX009 (ip), vehicle: other) was 98 % of control; the T/C (dose: 200.0 mg/kg/injection, schedule: Q01DX009 (ip), vehicle: other) is 99 % of control; the T/C (dose: 400.0 mg/kg/injection, schedule: Q01DX009 (ip), vehicle: other) is 107 % of control.

Consider `N#CC1CS(=O)(=O)C1`, for which the T/C is 104 % of control under setting [1]; 98 % of control under setting [2]; 99 % of control and 113 % of control under setting [3].

On to `O=S1(=O)C=CCCC=C1`, for which the T/C reads like this: (dose: 6.25 mg/kg/injection, schedule: Q01DX009 (ip), vehicle: Klucel (hydroxypropylcellulose) (HPC)) 102 % of control; (dose: 12.5 mg/kg/injection, schedule: Q01DX009 (ip), vehicle: Klucel (hydroxypropylcellulose) (HPC)) 98 % of control; under setting [4], 95 % of control; under setting [5], 98 % of control and 102 % of control.

For `[O-]c1cc2c3c(c1)c1cc4c(cc1c[n+]3C=C2)OCO4`, the T/C by setting is: (dose: 3.13 mg/kg/injection, schedule: Q01DX009 (ip), vehicle: water) 96 % of control; (dose: 6.25 mg/kg/injection, schedule: Q01DX009 (ip), vehicle: water) 121 % of control; (dose: 12.5 mg/kg/injection, schedule: Q01DX009 (ip), vehicle: water) 122 % of control; (dose: 25.0 mg/kg/injection, schedule: Q01DX009 (ip), vehicle: water) 124 % of control; (dose: 50.0 mg/kg/injection, schedule: Q01DX009 (ip), vehicle: water) 114 % of control.

With `O=c1oc(-c2ccccc2I)nc2ccccc12`, the T/C under setting [6] is 99 % of control and the T/C under setting [7] is 94 % of control.

Regarding `CC12COC(=O)CC1CCC1C2CCC2(C)C1CCC2(C)O` (configuration not stated), the T/C by setting is: under setting [8], 94 % of control; under setting [9], 94 % of control; (dose: 200.0 mg/kg/injection, schedule: Q01DX009 (ip), vehicle: saline with Tween-80) 88 % of control.

For `O=[N+]([O-])c1cc([N+](=O)[O-])c(Nc2cccc3ccccc23)c([N+](=O)[O-])c1`, the T/C under setting [5] was 92 % of control, the T/C under setting [6] was 103 % of control and the T/C under setting [7] was 97 % of control.

`O=C(O)CCC(=O)Nc1ccccc1C(F)(F)F`: the T/C by setting is: (dose: 12.5 mg/kg/injection, schedule: Q04DX003 (ip), vehicle: saline with Tween-80) 108 % of control; under setting [1], 111 % of control; under setting [2], 113 % of control; under setting [3], 108 % of control; (dose: 200.0 mg/kg/injection, schedule: Q04DX003 (ip), vehicle: saline with Tween-80) 105 % of control.

Regarding `O=C(CC(=O)C(F)(F)C(F)(F)C(F)(F)F)c1csc2ccccc12`, the T/C by setting is: (dose: 25.0 mg/kg/injection, schedule: Q01DX009 (ip), vehicle: saline with Tween-80) 97 % of control; under setting [8], 100 % of control; under setting [9], 92 % of control.

Consider `CN1CCN(CCNc2ccc(CO)c3sc4ccccc4c(=O)c23)CC1`, for which the T/C is, setting by setting: under setting [4], 110 % of control; under setting [5], 116 % of control.

Consider `Cc1c(N)nc(C(CC(N)=O)NCC(N)C(N)=O)nc1C(=O)NC(C(=O)NC(C)C(O)C(C)C(=O)NC(C(=O)NCCc1nc(-c2nc(C(=O)NCCCNCCCc3ccccn3)cs2)cs1)C(C)O)C(OC1OC(CO)C(O)C(O)C1OC1OC(CO)C(O)C(OC(N)=O)C1O)c1cnc[nH]1` (configuration not stated), for which the T/C is 93 % of control (dose: 1.5 mg/kg/injection, schedule: Q01DX009 (ip), vehicle: water); 102 % of control (dose: 3.0 mg/kg/injection, schedule: Q01DX009 (ip), vehicle: water); 102 % of control and 105 % of control (dose: 6.0 mg/kg/injection, schedule: Q01DX009 (ip), vehicle: water); 105 % of control and 110 % of control (dose: 12.0 mg/kg/injection, schedule: Q01DX009 (ip), vehicle: water); 100 % of control (dose: 24.0 mg/kg/injection, schedule: Q01DX009 (ip), vehicle: water).

Consider `CCCCNC(C)C1(O)Cc2c(O)c3c(c(O)c2C(OC2CC(N)C(O)C(C)O2)C1)C(=O)c1c(OC)cccc1C3=O` (configuration not stated), for which the T/C (dose: 50.0 mg/kg/injection, schedule: Q01DX001 (ip), vehicle: water) was 114 % of control and 181 % of control and 204 % of control; the T/C (dose: 100.0 mg/kg/injection, schedule: Q01DX001 (ip), vehicle: water) was 114 % of control and 263 % of control and 292 % of control; the T/C (dose: 200.0 mg/kg/injection, schedule: Q01DX001 (ip), vehicle: water) was 117 % of control and 217 % of control and 293 % of control; the T/C (dose: 400.0 mg/kg/injection, schedule: Q01DX001 (ip), vehicle: water) was 89 % of control.

For `Nc1ccc(N2CCNCC2)cc1`, the T/C is 108 % of control (dose: 50.0 mg/kg/injection, schedule: Q01DX009 (ip), vehicle: saline); 97 % of control (dose: 100.0 mg/kg/injection, schedule: Q01DX009 (ip), vehicle: saline); 100 % of control (dose: 200.0 mg/kg/injection, schedule: Q01DX009 (ip), vehicle: saline).
